Legend:
[1] = tested on: MEF WT cells; test: Cell viability assay in MEF WT cells; assay type: cell-based, mouse; conditions: NA = Not applicable, no cell death observed
Procedure: (§1) Genetically engineered PARP-1 and PARP-2 double knockout mouse embryonic fibroblast (MEF) were used for cell viability studies with wildtype control.
(§2) Cell viability assays were carried out using four cell lines including OVCAR8, MEF wt, MEF PARP-1 (−/−) KO, and MEF PARP-2 (−/−) KO as described in Makvandi cited above. Briefly, cells were seeded in black wall clear bottom 96-well plates at concentrations of 1,000 cells/well. […] Plates were read on an Enspire multimode plate reader (Perkin Elmer). Data was normalized to percent survival at each concentration evaluated by diving the luminescent signal in treated wells vs. the average of vehicle controls. Experiments were repeated three times and all compounds were assayed during each experiment.
(§3) This isogenic model was selected due to the highly conserved nature of the PARP catalytic domain, all-owing investigation in enzyme specificity.

[2] = target: PARP-1 (Homo sapiens, UniProt P09874); test: PARP-1 radioligand binding in live OVCAR8 cells ([125I]KX1 competition); conditions: for IC50: radioligand binding in OVCAR8 cells; for enzyme affinity in contrast to respective boc-protected analogue: free-amine derivatives
Procedure: Cells were cultured using standard techniques at 37° C. with 5% CO2 and 15% 02. […] Genetically engineered PARP-1 and PARP-2 double knockout mouse embryonic fibroblast (MEF) were used for cell viability studies with wildtype control. All cells were cultured in RPMI 1640 with 10% FBS and 1% penicillin/streptomycin.
The affinity of each compound for the PARP-1 enzyme was evaluated using a radioligand binding method described in Makvandi, A radiotracer strategy to quantify PARP-1 expression in vivo provides a biomarker that can enable patient selection for PARP inhibitor therapy. Cancer Research 2016. Briefly, OVCAR8 ovarian cancer cells were seeded in 96-well Stripwell plates at a density of 40,000 cells/well 24 hrs prior to the study. On the day of study, compounds were diluted in RPMI to concentrations of 100 μM-0.064 nM. […] Reactions were allowed to equilibrate for 1 hr and were then washed with 200 μL of PBS. Wells were separated and counted on an automatic Wizard gamma counter (Perkin Elmer, Waltham Mass.). […] Experiments were repeated three times with adjusting dose concentrations to increase accuracy of IC50 values.
Compounds 10-17 were evaluated for PARP-1 inhibition using a radioligand binding assay protocol with BRCA1 methylated ovarian cancer cells (OVCAR8) as described above. See, Table 3. […] Compared to 1a, oxaazaspiro analogue 1b performed slightly better with scaffold 10b displaying a PARP-1 binding value of 24.9 nM.

[3] = tested on: MEF PARP-2 (-/-) KO cells; test: Cell viability assay in MEF PARP-2 KO-/- cells; assay type: cell-based, mouse; conditions: NA = Not applicable, no cell death observed
Procedure: as §1, §2, §3
The cell cytotoxicity profile of these selected compounds in MEF PARP-2 KO−/− cell lines was then analyzed as described above.

Chain of PARP-1 (P09874 whole entry): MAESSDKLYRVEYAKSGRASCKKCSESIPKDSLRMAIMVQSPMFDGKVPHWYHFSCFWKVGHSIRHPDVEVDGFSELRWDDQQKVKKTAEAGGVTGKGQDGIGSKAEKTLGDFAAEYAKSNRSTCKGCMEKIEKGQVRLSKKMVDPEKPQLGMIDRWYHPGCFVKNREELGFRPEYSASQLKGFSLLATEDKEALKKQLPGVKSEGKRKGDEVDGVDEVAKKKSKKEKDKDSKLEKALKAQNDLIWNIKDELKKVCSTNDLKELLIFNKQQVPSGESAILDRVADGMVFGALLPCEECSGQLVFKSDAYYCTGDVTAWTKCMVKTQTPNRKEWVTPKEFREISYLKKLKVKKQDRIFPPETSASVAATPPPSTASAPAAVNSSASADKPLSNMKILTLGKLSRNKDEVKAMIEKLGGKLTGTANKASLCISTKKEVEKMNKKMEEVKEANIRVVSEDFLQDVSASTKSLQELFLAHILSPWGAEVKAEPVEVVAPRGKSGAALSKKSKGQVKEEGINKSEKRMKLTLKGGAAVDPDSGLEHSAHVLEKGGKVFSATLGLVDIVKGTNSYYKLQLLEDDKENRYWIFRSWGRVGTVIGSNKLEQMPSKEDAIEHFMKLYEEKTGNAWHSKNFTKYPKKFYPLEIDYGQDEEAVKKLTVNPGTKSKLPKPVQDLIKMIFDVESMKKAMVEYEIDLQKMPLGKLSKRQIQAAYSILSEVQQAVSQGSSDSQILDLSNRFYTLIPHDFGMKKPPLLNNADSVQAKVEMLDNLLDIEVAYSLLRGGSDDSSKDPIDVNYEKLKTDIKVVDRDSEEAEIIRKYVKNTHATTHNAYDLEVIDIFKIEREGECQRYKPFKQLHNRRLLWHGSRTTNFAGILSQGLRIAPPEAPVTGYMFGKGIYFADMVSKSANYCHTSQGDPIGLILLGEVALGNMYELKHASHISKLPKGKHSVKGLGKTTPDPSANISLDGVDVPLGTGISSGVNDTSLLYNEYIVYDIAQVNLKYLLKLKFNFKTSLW

Structure (SMILES)	EC50 ([1]; Mus musculus) [µM]	EC50 [2] [µM]	EC50 ([3]; Mus musculus) [µM]	further results
O=C(c1cc(Cc2n[nH]c(=O)c3ccccc23)ccc1F)N1CC2(CCC2)C1 [Compound 10a, 4-(4-Fluoro-3-(2-azaspiro[3.3]heptane-2-carbonyl)benzyl)phthalazin-1(2H)-one]	48.3	0.0339 ± 0.0015	49	–
O=C(c1cc(Cc2n[nH]c(=O)c3ccccc23)ccc1F)N1CC2(COC2)C1 [Compound 10b, 4-(4-Fluoro-3-(2-oxa-6-azaspiro[3.3]heptane-6-carbonyl)benzyl)phthalazin-1(2H)-one]	52.2	0.0249	53.3	IC50 [2]: 0.0249 µM
CC(C)(C)OC(=O)N1CC2(C1)CN(C(=O)c1cc(Cc3n[nH]c(=O)c4ccccc34)ccc1F)C2 [Compound 10c, Tert-butyl 6-(2-fluoro-5-((4-oxo-3,4-dihydrophthalazin-1-yl)methyl)benzoyl)-2,6-diazaspiro[3.3]heptane-2-carboxylate]	31.1	0.552	24.7	fold lower PARP-1 affinity compared to the methylene congener ([2]; 10c vs 10a, 15b vs 15a): ~16 fold; IC50 [2]: 0.552 µM
O=C(c1cc(Cc2n[nH]c(=O)c3ccccc23)ccc1F)N1CC2(CNC2)C1 [Compound 10d, 4-(4-Fluoro-3-(2,6-diazaspiro[3.3]heptane-2-carbonyl)benzyl)phthalazin-1(2H)-one]	–	2.39	–	–
O=C(c1cc(Cc2n[nH]c(=O)c3ccccc23)ccc1F)N1CC2(C1)CN(C(=O)C1CC1)C2 [Compound 10e, 4-(3-(6-(Cyclopropanecarbonyl)-2,6-diazaspiro[3.3]heptane-2-carbonyl)-4-fluorobenzyl)phthalazin-1(2H)-one]	–	0.0126	59.8	IC50 [2]: 0.0126 µM
O=C(c1cc(Cc2n[nH]c(=O)c3ccccc23)ccc1F)N1CCC12CCC2 [Compound 11a, 4-(4-Fluoro-3-(I-azaspiro[3.3]heptane-1-carbonyl)benzyl)phthalazin-1(2H)-one]	–	–	–	EC50 [1]: 48 µM; EC50 [3]: 58.3 µM
CC(C)(C)OC(=O)N1CC2(CCN2C(=O)c2cc(Cc3n[nH]c(=O)c4ccccc34)ccc2F)C1 [Compound 11b, Tert-butyl 1-(2-fluoro-5-((4-oxo-3,4-dihydrophthalazin-1-yl)methyl)benzoyl)-1,6-diazaspiro[3.3]heptane-6-carboxylate]	42.9	–	35.8	–
O=C(c1cc(Cc2n[nH]c(=O)c3ccccc23)ccc1F)N1CCC12CNC2 [Compound 11c, 4-(4-Fluoro-3-(1,6-diazaspiro[3.3]heptane-1-carbonyl)benzyl)phthalazin-1(2H)-one]	–	–	–	enzyme affinity in contrast to respective boc-protected analogue [2]: slight increase in enzyme affinity
O=C(C1CC1)N1CC2(CCN2C(=O)c2cc(Cc3n[nH]c(=O)c4ccccc34)ccc2F)C1 [Compound 11d, 4-(3-(6-(Cyclopropanecarbonyl)-1,6-diazaspiro[3.3]heptane-1-carbonyl)-4-fluorobenzyl)phthalazin-1(2H)-one]	53.2	–	46.7	–
O=C(c1cc(Cc2n[nH]c(=O)c3ccccc23)ccc1F)N1CC2(CCNCC2)C1 [Compound 12c, 4-(4-Fluoro-3-(2,7-diazaspiro[3.5]nonane-2-carbonyl)benzyl)phthalazin-1(2H)-one]	–	1.42	68.5	enzyme affinity in contrast to respective boc-protected analogue [2]: slight increase in enzyme affinity
O=C(c1cc(Cc2n[nH]c(=O)c3ccccc23)ccc1F)N1CC2(CCN(C(=O)C3CC3)CC2)C1 [Compound 12d, 4-(3-(7-(Cyclopropanecarbonyl)-2,7-diazaspiro[3.5]nonane-2-carbonyl)-4-fluorobenzyl)phthalazin-1(2H)-one]	49.3	0.1	57.2	–
O=C(c1cc(Cc2n[nH]c(=O)c3ccccc23)ccc1F)N1CCC12CCCCC2 [Compound 13a, 4-(4-Fluoro-3-(1-azaspiro[3.5]nonane-1-carbonyl)benzyl)phthalazin-(2H)-one]	32.6	0.284 ± 0.0012	78.8	–
CC(C)(C)OC(=O)N1CCC2(CC1)CCN2C(=O)c1cc(Cc2n[nH]c(=O)c3ccccc23)ccc1F [Compound 13b, Tert-butyl 1-(2-fluoro-5-((4-oxo-3,4-dihydrophthalazin-1-yl)methyl)benzoyl)-1,7-diazaspiro[3.5]nonane-7-carboxylate]	~23	2.97	33.2	EC50 [1]: 23.3 µM
O=C(c1cc(Cc2n[nH]c(=O)c3ccccc23)ccc1F)N1CCC12CCNCC2 [Compound 13c, 4-(4-Fluoro-3-(1,7-diazaspiro[3.5]nonane-1-carbonyl)benzyl)phthalazin-1(2H)-one]	–	0.11	106	fold improvement of PARP-1 affinity upon removing the boc-group ([2]; 13c vs 13b): ~29 fold; IC50 [2]: 0.11 µM
O=C(C1CC1)N1CCC2(CC1)CCN2C(=O)c1cc(Cc2n[nH]c(=O)c3ccccc23)ccc1F [Compound 13d, 4-(3-(7-(Cyclopropanecarbonyl)-1,7-diazaspiro[3.5]nonane-1-carbonyl)-4-fluorobenzyl)phthalazin-1(2H)-one]	47.5	0.431	44.4	–
O=C(c1cc(Cc2n[nH]c(=O)c3ccccc23)ccc1F)N1CCC2(CCC2)C1 [Compound 14a, 4-(4-Fluoro-3-(6-azaspiro[3.4]octane-6-carbonyl)benzyl)phthalazin-1(2H)-one]	45.2	0.0324 ± 0.0011	54.7	–
CC(C)(C)OC(=O)N1CC2(CCN(C(=O)c3cc(Cc4n[nH]c(=O)c5ccccc45)ccc3F)C2)C1 [Compound 14b]	29.2	1.19	31.8	–
CC(C)(C)OC(=O)N1CCC2(C1)CN(C(=O)c1cc(Cc3n[nH]c(=O)c4ccccc34)ccc1F)C2 [Compound 14b]	–	–	–	IC50 [2]: 1.19 µM
O=C(c1cc(Cc2n[nH]c(=O)c3ccccc23)ccc1F)N1CCC2(CNC2)C1 [Compound 14c, 4-(4-Fluoro-3-(2,6-diazaspiro[3.4]octane-6-carbonyl)benzyl)phthalazin-1(2H)-one]	–	1.24	–	–
O=C(c1cc(Cc2n[nH]c(=O)c3ccccc23)ccc1F)N1CCC2(CCCC2)C1 [Compound 15a, 4-(4-Fluoro-3-(2-azaspiro[4.4]nonane-2-carbonyl)benzyl)phthalazin-1(2H)-one]	31.7	0.0514 ± 0.0011	55.5	–
O=C(c1cc(Cc2n[nH]c(=O)c3ccccc23)ccc1F)N1CCC2(CCNC2)C1 (stereo not shown) [Compound 15c, 4-(4-Fluoro-3-(2,7-diazaspiro[4.4]nonane-2-carbonyl)benzyl)phthalazin-1(2H)-one]	–	1.12	512	enzyme affinity in contrast to respective boc-protected analogue [2]: slight increase in enzyme affinity
O=C(c1cc(Cc2n[nH]c(=O)c3ccccc23)ccc1F)N1CCC2(CCN(C(=O)C3CC3)C2)C1 (stereo not shown) [Compound 15d, 4-(3-(7-(Cyclopropanecarbonyl)-2,7-dizaspiro[4.4]nonane-2-carbonyl)-4-fluorobenzyl)phthalazin-1(2H)-one]	–	2.59	70.9	–
O=C(c1cc(Cc2n[nH]c(=O)c3ccccc23)ccc1F)N1CCC2(CCNCC2)C1 [Compound 16c, 4-(4-Fluoro-3-(2,8-diazaspiro[4.5]decane-2-carbonyl)benzyl)phthalazin-1(2H)-one]	–	3.88	–	–
O=C(c1cc(Cc2n[nH]c(=O)c3ccccc23)ccc1F)N1CCC2(CCNCC2)CC1 [Compound 17c, 4-(4-Fluoro-3-(3,9-diazaspiro[5.5]undecane-3-carbonyl)benzyl)phthalazin-1(2H)-one]	–	0.234	59.7	enzyme affinity in contrast to respective boc-protected analogue [2]: slight increase in enzyme affinity
COC1CC(NC(=O)c2cc(Cc3n[nH]c(=O)c4ccccc34)ccc2F)C1 (stereo not shown) [Compound 18]	–	0.0741	–	–
O=C(c1cc(Cc2n[nH]c(=O)c3ccccc23)ccc1F)N1CCC(c2ccc(F)cc2)CC1 [Compound 36, 4-(4-fluoro-3-(4-(4-fluorophenyl)piperidine-1-carbonyl)benzyl)phthalazin-1(2H)-one]	–	0.0013	–	–
O=C(c1cc(Cc2n[nH]c(=O)c3ccccc23)ccc1F)N1CC2(CC(OCCF)C2)C1 [Compound 37B, 4-(4-fluoro-3-(6-(2-fluoroethoxy)-2-azaspiro[3.3]heptane-2-carbonyl)benzyl)phthalazin-1(2H)-one]	–	0.0107 ± 0.0011	–	–
O=C(c1cc(Cc2n[nH]c(=O)c3ccccc23)ccc1F)N1CC2(CC(c3ccc(F)cc3)C2)C1 [Compound 39, 4-(4-fluoro-3-(6-(4-fluorophenyl)-2-azaspiro[3.3]heptane-2-carbonyl)benzyl)phthalazin-1(2H)-one]	–	0.0028	–	–

Source: US11542282B2, “Low affinity poly(AD-ribose) polymerase 1 dependent cytotoxic agents” (THE TRUSTEES OF THE UNIVERSITY OF PENNSYLVANIA, priority 2018, dated 2023)
